Patent US20240016781A1, “TREATMENT OF KRAS MUTANT CANCERS” (MEI Pharma, Inc., priority 2020, published 2024)
Like-named read-outs stand apart in the source and are kept apart here.

How the values were obtained:
Assay in all cases: 72-hour CellTiter-Glo 2.0 growth inhibition screen (single agent, 9x9 combination dose matrix);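 as to Best CI Level: inhibition effect level at which the best CI was calculated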
Type in all cases: cell-based
TOV-21G = test system: TOV-21G;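 as to Best CI Level: inhibition effect level at which the best CI was calculated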
HPAF-II = test system: HPAF-II;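 as to Best CI Level: inhibition effect level at which the best CI was calculated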
SW48 KRAS (G12D/+) = details: for EC50: SW48, 72 h, read-out: EC50
NCI-H358 = details: for EC50: NCI-H358, 72 h
SW48 = details: for EC50: SW48, 72 h
[1] = TOV-21G (KRAS G13C), enhancer + MEI-522 (Voruciclib), 72 h;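 as to Best CI Level: inhibition effect level at which the best CI was calculated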
[2] = enhancer combined with MEI-522 (Voruciclib), TOV-21G (Ovary), 72 hours, inhibition data
[3] = HPAF-II (KRAS G12D), enhancer + MEI-522 (Voruciclib), 72 h;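 as to Best CI Level: inhibition effect level at which the best CI was calculated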
[4] = enhancer combined with MEI-522 (Voruciclib), HPAF-II (Pancreas), 72 hours, inhibition data
[5] = Homo sapiens, SW48 KRAS (G12D/+), Colorectal, Additional Single Agent Responses (inhibition, % I), 72 h
[6] = Homo sapiens, SW48 KRAS (G12D/+), Colorectal, growth inhibition (GI) curve, single agent, 72 h
[7] = SW48 KRAS (G12D/+), enhancer + MEI-522 (Voruciclib), 72 h
[8] = enhancer combined with MEI-522 (Voruciclib), SW48 KRAS (G12D/+) (Colorectal), 72 hours, inhibition data
[9] = NCl-H358 (KRAS G12C), enhancer + MEI-522 (Voruciclib), 72 h
[10] = enhancer combined with MEI-522 (Voruciclib), NCl-H358 (Lung), 72 hours, inhibition data
[11] = Homo sapiens, SW48, Colorectal, Additional Single Agent Responses (inhibition, % I), 72 h
[12] = Homo sapiens, SW48, Colorectal, growth inhibition (GI) curve, single agent, 72 h
[13] = SW48 (KRAS WT), enhancer + MEI-522 (Voruciclib), 72 h
[14] = enhancer combined with MEI-522 (Voruciclib), SW48 (Colorectal), 72 hours, inhibition data

EC50 (SW48 KRAS (G12D/+); [5]): 4.1 nM
EC50 (SW48 KRAS (G12D/+); [6]): 4.2 nM
IC50 (SW48 KRAS (G12D/+); [5]): 4.8 nM
GI50 (SW48 KRAS (G12D/+); [6]): 4.3 nM
EC50 (NCI-H358; Homo sapiens, NCl-H358, Lung, Additional Single Agent Responses (inhibition, % I), 72 h): 6.1 nM
EC50 (NCI-H358; Homo sapiens, NCl-H358, Lung, growth inhibition (GI) curve, single agent, 72 h): 6.1 nM
IC50 (NCI-H358; Homo sapiens, NCI-H358, NCl-H358, Lung, Additional Single Agent Responses (inhibition, % I), 72 h): 7.8 nM
GI50 (NCI-H358; Homo sapiens, NCI-H358, NCl-H358, Lung, growth inhibition (GI) curve, single agent, 72 h): 6.5 nM
EC50 (SW48; [11]): 4.7 nM
EC50 (SW48; [12]): 4.9 nM
IC50 (SW48; [11]): 4.9 nM
GI50 (SW48; [12]): 4.6 nM
Structure (SMILES): CC[C@@H]1C(=O)N(C)c2cnc(Nc3ccc(C(=O)N[C@H]4CC[C@H](N5CCN(CC6CC6)CC5)CC4)cc3OC)nc2N1C(C)C [Volasertib]
EC50 (TOV-21G; Homo sapiens, TOV21G, 72 h, TOV-21G, Ovary, Additional Single Agent Responses (inhibition, % I)): 10 nM
EC50 (TOV-21G; Homo sapiens, TOV21G, 72 h, TOV-21G, Ovary, growth inhibition (GI) curve, single agent): 13.8 nM
IC50 (TOV-21G; Homo sapiens, TOV21G, TOV-21G, Ovary, Additional Single Agent Responses (inhibition, % I), 72 h): 11.6 nM
Emax (TOV-21G; Homo sapiens, TOV21G, TOV-21G, Ovary, Additional Single Agent Responses, 72 h, read-out: Max Response (% I)): 89%
GI50 (TOV-21G; Homo sapiens, TOV21G, TOV-21G, Ovary, growth inhibition (GI) curve, single agent, 72 h): 8.4 nM
Emax (TOV-21G; Homo sapiens, TOV21G, TOV-21G, Ovary, growth inhibition (GI), single agent, 72 h, read-out: Max Response (% GI)): 163%
Best CI (TOV-21G; [1]): 0.56
Bliss Volume (TOV-21G; [1]): 2.45
HSA volume (TOV-21G; [1]): −4.18
Loewe Volume (TOV-21G; [1]): −6.03
Synergy Score (TOV-21G; [1]): 1.71
Response Area (TOV-21G; TOV-21G, Ovary, Additional Single Agent Responses (inhibition, % I), 72 h): 4.33
Response Area (TOV-21G; TOV-21G, Ovary, growth inhibition (GI), AUC, single agent, 72 h): 7.56
Best CI (TOV-21G; [2]): 0.76
Best CI Level (TOV-21G; [2]): 20
Bliss Volume (TOV-21G; [2]): −1.60
HSA volume (TOV-21G; [2]): −1.29
Loewe Volume (TOV-21G; [2]): −1.80
Synergy Score (TOV-21G; [2]): 0.60
Best CI (HPAF-II; [3]): 0.66
Bliss Volume (HPAF-II; [3]): −0.85
HSA volume (HPAF-II; [3]): 0.04
Loewe Volume (HPAF-II; [3]): −0.80
Synergy Score (HPAF-II; [3]): 2.64
Response Area (HPAF-II; HPAF-II, Pancreas, Additional Single Agent Responses (inhibition, % I), 72 h): 3.45
Response Area (HPAF-II; HPAF-II, Pancreas, growth inhibition (GI), AUC, single agent, 72 h): 4.65
EC50 (HPAF-II; Homo sapiens, HPAF-II, 72 h, Pancreas, Additional Single Agent Responses (inhibition, % I)): 3.9 nM
EC50 (HPAF-II; Homo sapiens, HPAF-II, 72 h, Pancreas, growth inhibition (GI) curve, single agent): 3.9 nM
IC50 (HPAF-II; Homo sapiens, HPAF-II, Pancreas, Additional Single Agent Responses (inhibition, % I), 72 h): 6.2 nM
Emax (HPAF-II; Homo sapiens, HPAF-II, Pancreas, Additional Single Agent Responses, 72 h, read-out: Max Response (% I)): 71%
GI50 (HPAF-II; Homo sapiens, HPAF-II, Pancreas, growth inhibition (GI) curve, single agent, 72 h): 4.4 nM
Emax (HPAF-II; Homo sapiens, HPAF-II, Pancreas, growth inhibition (GI), single agent, 72 h, read-out: Max Response (% GI)): 95%
Best CI (HPAF-II; [4]): 0.52
Bliss Volume (HPAF-II; [4]): −2.61
HSA volume (HPAF-II; [4]): −0.36
Loewe Volume (HPAF-II; [4]): −0.96
Synergy Score (HPAF-II; [4]): 0.98
Best CI Level (HPAF-II; enhancer combined with MEI-522 (Voruciclib), HPAF-II (Pancreas), 72 hours, inhibition data, unit assumed): 70%
Emax (SW48 KRAS (G12D/+); Homo sapiens, SW48 KRAS (G12D/+), Colorectal, Additional Single Agent Responses, 72 h, read-out: Max Response (% I)): 86%
Emax (SW48 KRAS (G12D/+); Homo sapiens, SW48 KRAS (G12D/+), Colorectal, growth inhibition (GI), single agent, 72 h, read-out: Max Response (% GI)): 148%
Response Area (SW48 KRAS (G12D/+); SW48 KRAS (G12D/+), Colorectal, Additional Single Agent Responses (inhibition, % I), 72 h): 3.32
Response Area (SW48 KRAS (G12D/+); SW48 KRAS (G12D/+), Colorectal, growth inhibition (GI), AUC, single agent, 72 h): 5.01
Best CI (SW48 KRAS (G12D/+); [7]): 0.06
Bliss Volume (SW48 KRAS (G12D/+); [7]): 8.36
HSA volume (SW48 KRAS (G12D/+); [7]): 1.07
Loewe Volume (SW48 KRAS (G12D/+); [7]): 3.66
Synergy Score (SW48 KRAS (G12D/+); [7]): 13.34
Best CI (SW48 KRAS (G12D/+); [8]): 0.08
Bliss Volume (SW48 KRAS (G12D/+); [8]): 0.41
HSA volume (SW48 KRAS (G12D/+); [8]): 0.61
Loewe Volume (SW48 KRAS (G12D/+); [8]): 2.08
Synergy Score (SW48 KRAS (G12D/+); [8]): 4.06
Best CI Level (SW48 KRAS (G12D/+); enhancer combined with MEI-522 (Voruciclib), SW48 KRAS (G12D/+) (Colorectal), 72 hours, inhibition data, unit assumed): 80%
Emax (NCI-H358; Homo sapiens, NCI-H358, NCl-H358, Lung, Additional Single Agent Responses, 72 h, read-out: Max Response (% I)): 75%
Emax (NCI-H358; Homo sapiens, NCI-H358, NCl-H358, Lung, growth inhibition (GI), single agent, 72 h, read-out: Max Response (% GI)): 100%
Bliss Volume (NCI-H358; [9]): −1.58
HSA volume (NCI-H358; [9]): −4.12
Loewe Volume (NCI-H358; [9]): −3.93
Synergy Score (NCI-H358; [9]): 3.21
Response Area (NCI-H358; NCl-H358, Lung, Additional Single Agent Responses (inhibition, % I), 72 h): 3.44
Response Area (NCI-H358; NCl-H358, Lung, growth inhibition (GI), AUC, single agent, 72 h): 4.57
Best CI (NCI-H358; [10]): 0.80
Best CI Level (NCI-H358; [10]): 20
Bliss Volume (NCI-H358; [10]): −4.08
HSA volume (NCI-H358; [10]): −3.08
Loewe Volume (NCI-H358; [10]): −3.28
Synergy Score (NCI-H358; [10]): 0.69
Emax (SW48; Homo sapiens, SW48, Colorectal, Additional Single Agent Responses, 72 h, read-out: Max Response (% I)): 95%
Emax (SW48; Homo sapiens, SW48, Colorectal, growth inhibition (GI), single agent, 72 h, read-out: Max Response (% GI)): 174%
Best CI (SW48; [13]): 0.11
Bliss Volume (SW48; [13]): 8.81
HSA volume (SW48; [13]): −0.59
Loewe Volume (SW48; [13]): 1.23
Synergy Score (SW48; [13]): 11.75
Response Area (SW48; SW48, Colorectal, Additional Single Agent Responses (inhibition, % I), 72 h): 4.47
Response Area (SW48; SW48, Colorectal, growth inhibition (GI), AUC, single agent, 72 h): 6.76
Best CI (SW48; [14]): 0.60
Bliss Volume (SW48; [14]): 0.08
HSA volume (SW48; [14]): 0.40
Loewe Volume (SW48; [14]): 0.43
Synergy Score (SW48; [14]): 1.83
Best CI Level (SW48; enhancer combined with MEI-522 (Voruciclib), SW48 (Colorectal), 72 hours, inhibition data, unit assumed): 20%
